From patent US20020028938A1, “Prostaglandin endoperoxide H synthase biosynthesis inhibitors” (priority 1997, published 2002) come the findings set out here.

pIC50: −log10 of the molar value.

Data set [1] deals with T1, recombinant human Cox-2 (r-hu Cox-2) (Homo sapiens, UniProt P35354).
T1 construct: made in house; host or cells: baculovirus/Sf9 insect cells (microsomes)
T1 sequence (P35354 18-604): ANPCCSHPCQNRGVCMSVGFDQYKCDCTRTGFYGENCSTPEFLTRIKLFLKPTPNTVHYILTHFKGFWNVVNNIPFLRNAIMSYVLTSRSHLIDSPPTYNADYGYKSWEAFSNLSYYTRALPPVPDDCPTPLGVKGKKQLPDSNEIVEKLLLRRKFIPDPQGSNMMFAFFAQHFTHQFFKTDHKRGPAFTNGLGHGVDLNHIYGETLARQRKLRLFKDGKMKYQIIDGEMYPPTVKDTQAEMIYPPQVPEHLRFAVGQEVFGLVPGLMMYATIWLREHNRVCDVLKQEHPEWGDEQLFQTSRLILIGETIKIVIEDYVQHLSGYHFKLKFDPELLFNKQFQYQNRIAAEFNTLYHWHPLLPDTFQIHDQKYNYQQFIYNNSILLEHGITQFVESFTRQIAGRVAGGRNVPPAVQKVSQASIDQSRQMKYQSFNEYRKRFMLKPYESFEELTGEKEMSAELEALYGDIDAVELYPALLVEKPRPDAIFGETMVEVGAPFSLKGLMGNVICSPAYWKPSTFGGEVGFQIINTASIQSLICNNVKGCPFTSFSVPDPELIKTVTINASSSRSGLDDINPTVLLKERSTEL
The data set can be described thus: Recombinant human PGHS-2 enzyme assay (RHUCX2). The note with it: for pIC50: read-out: RHUCX2 IC50 (parenthetical value). The class given is biochemical. In short, it runs like this: (§1)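 PGE2 formed with and without drug quantified by EIA against matrix-matched standards; percent inhibition relative to control mean, IC50 by linear regression.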

Data set [2] concerns the target T2, recombinant human Cox-1 (r-hu Cox1) (Homo sapiens, UniProt P23219).
T2 construct: made in house; host or cells: baculovirus/Sf9 insect cells (microsomes)
The experiment in a line: Recombinant human PGHS-1 enzyme assay (RHUCX1). Type of data set: biochemical. The conditions noted are these: for pIC50: read-out: RHUCX1 IC50 (parenthetical value). In a few lines: as §1

Data set [3] concerns the target T3, human amnionic whole cell cyclooxygenase-2 (WISH cells) (Homo sapiens, UniProt P35354).
T3 construct: endogenous in cells; host or cells: human amnionic WISH cells, induced with IL-1beta
T3 sequence (P35354 18-604): T1 sequence (P35354 18-604)
The data set can be described thus: IL-1β induced PGE2 production in WISH cells. The class given is cell-based. The note with it: for pIC50: read-out: Wish IC50 (parenthetical value). In short, it runs like this: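 Confluent (80%) WISH cells were stimulated with 5 ng/ml IL-1β in serum-free Neuman-Tytell medium, with or without test compound in DMSO (0.01% v/v). PGE2 in the culture medium was measured by EIA against standards prepared in the same medium, read by optical density.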

Data set [4] has as its target T4, Human Whole Platelet Cyclooxygenase-1 (Homo sapiens, UniProt P23219).
T4 construct: from tissue; host or cells: human blood: isolated platelets (A4) or heparinised whole blood (A9)
The data set can be described thus: Human Whole Platelet Cyclooxygenase-1 assay (HWPX). Type of data set: cell-based. The note with it: for pIC50: read-out: HWPX IC50 (parenthetical value). How it is done: Blood from normal healthy volunteers is collected into tubes containing ACD (acid citrate dextrose) as the anticoagulant. This blood is centrifuged at 175×g to prepare platelet rich plasma. The platelet rich plasma is then centrifuged at 100×g to pellet the white blood cells, leaving the platelets in the supernatant. The supernatant is layered on a cushion of 0.7 mL of 10% bovine serum albumin in Tyrodes solution (Gibco; Grand Island, N.Y.) and then centrifuged at 1000×g. The resulting supernatant from this centrifuigation is then removed and 11 mL of Tyrodes solution is added to the remaining pellet of platelets. The platelets are then aliquoted at 120 μl into a 96 well plate. Experimental compounds are added and allowed to pre-incubate for 10 minutes. At the end of this pre-incubation period, the calcium ionophore A23187 is added to a final concentration of 8.8 μM and the incubation is continued for ten minutes. The reaction is stopped by adding cold 6 mM EDTA, the incubation mixture is centrifuged at 220×g, and the supernatants are then analyzed for thromboxane using a commercial kit from Cayman Chemical (Ann Arbor, Mich.

Data set [5] deals with air pouch prostaglandin biosynthesis (Cox-2). The experiment in a line: Carrageenan induced air pouch prostaglandin biosynthesis model (CAP). The conditions noted are these: 3 mpk, rat. Type of data set: in vivo, rat. The protocol: To compare the mean responses of the treatment groups, analysis of variance was applied. Percent inhibition values were determined by comparing the individual treatment mean values to the mean of the control group. Linear regression was used to estimate IC50's/ED50's in appropriate assays.
Carrageenan induced air pouch prostaglandin biosynthesis model (CAP) Air pouches are formed in the backs of male Sprague Dawley rats by injecting 20 mL of sterile air on day 0. Three days later the pouch was reinflated with an additional 10 mL of sterile air. On day 7, 1 mL of saline containing 0.2 % lambda carrageenan (Sigma Chemical Co.) is injected into the pouch to induce the inflammatory reaction that is characterized by the release of prostaglandins. Test compounds are dosed at 0.1 to 10 mg/kg 30 minutes prior to carrageenan. Four hours after the carrageenan injection the pouch is lavaged and levels of prostaglandins are determined by enzyme immuno-assay using commercially available kits. […] Values for Cox-2 inhibition that are parenthetical indicate ED50 values.

Setting [6] is: read-out: RHUCX2 % Inh. at Dose.
Where [7] appears, read: read-out: HWPX % Inhib. at Dose.
Where [8] appears, read: read-out: Wish % Inhib. at Dose.
The mark [9] stands for this setting: read-out: RHUCX1 % Inh. at Dose.

T4 sequence (P23219 24-599): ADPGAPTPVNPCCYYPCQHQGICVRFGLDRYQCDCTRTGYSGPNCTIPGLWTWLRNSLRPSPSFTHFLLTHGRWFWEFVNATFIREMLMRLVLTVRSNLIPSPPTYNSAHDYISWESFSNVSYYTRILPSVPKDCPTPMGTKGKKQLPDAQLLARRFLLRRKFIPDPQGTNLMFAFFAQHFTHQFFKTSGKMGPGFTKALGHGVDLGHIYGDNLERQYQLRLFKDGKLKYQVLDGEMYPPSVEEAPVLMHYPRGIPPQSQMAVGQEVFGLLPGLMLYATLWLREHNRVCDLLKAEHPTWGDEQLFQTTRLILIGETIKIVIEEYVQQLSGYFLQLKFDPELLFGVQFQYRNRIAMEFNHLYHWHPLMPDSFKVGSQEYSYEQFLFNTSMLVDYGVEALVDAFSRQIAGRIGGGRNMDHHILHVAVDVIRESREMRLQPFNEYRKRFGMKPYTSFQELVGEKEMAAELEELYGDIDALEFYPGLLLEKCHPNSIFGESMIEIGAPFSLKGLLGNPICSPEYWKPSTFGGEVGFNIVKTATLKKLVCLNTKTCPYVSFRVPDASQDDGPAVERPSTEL
T2 sequence (P23219 24-599): as above

The pIC50 is the IC50 on a negative log10 scale, so that one unit is a factor of ten. In general, melting point refers to the temperature, or range, at which the solid turns liquid. As to `CC(c1cc(F)cc(F)c1)n1ncc(-c2ccc(S(N)(=O)=O)cc2)c(-c2ccc(F)cc2)c1=O` (stereo not drawn) [Example 147, 2-(α-Methyl-3,5-difluorobenzyl)-4-(4-fluorophenyl)-5-[4-(aminosulfonyl)phenyl]-3(2H)-pyridazinone], the melting point was 139 to 141 °C. For the same molecule, in data set [1] (0.03 μM, read-out: RHUCX2 % Inh. at Dose), the inhibition at 0.03 µM was 0%. For the same molecule, in data set [1] (setting [6]), the inhibition at 0.1 µM was 64% and the inhibition at 1 µM was 100%. In addition, the pIC50 in data set [2] was 7.17. The pIC50 in data set [3] was 7.54. Further, in data set [4] (setting [7]), the inhibition at 0.3 µM amounted to 84%.
`C/C(=C\Cn1ncc(-c2ccc(S(N)(=O)=O)cc2)c(-c2ccc(F)cc2)c1=O)C(F)(F)F` [Example 154] showed a melting point of 155 to 157 °C. The pIC50 in data set [1] was 7.74. Moreover, the pIC50 in data set [2] is 6.90. Further, in data set [3] (setting [8]), the inhibition at 0.01 µM came to 69% and the inhibition at 0.1 µM came to 100%. Moreover, the inhibition at 0.1 µM in data set [4] (0.1 μM, read-out: HWPX % Inhib. at Dose) turned out to be 48%. Also, the inhibition at 0.3 µM in data set [4] (setting [7]) was determined as 81%.
Consider `CS(=O)(=O)c1ccc(-c2cnn(-c3cccc(Cl)c3)c(=O)c2-c2ccc(F)cc2)cc1` [Example 165], for which the melting point fell in the range of 232 to 235 °C. The pIC50 in data set [1] is 5.97. Also, the inhibition at 100 µM in data set [2] (setting [9]) worked out at 0%. Further, the pIC50 in data set [3] was 7.52. For the same molecule, the pIC50 in data set [4] was 5.72.
The matching figures for `CS(=O)(=O)c1ccc(-c2cnn(-c3ccc(F)cc3)c(=O)c2C2CCCCC2)cc1` [Example 228, 2-(4-Fluorophenyl)-4-cyclohexyl-5-[4-(methylsulfonyl)phenyl]-3(2H)-pyridazinone]: 231 to 233 °C, 6.68, 7%, 7.07 and 4.71.
Molecule `Cc1cc(-c2c(-c3ccc(S(C)(=O)=O)cc3)cnn(-c3ccc(F)c(Cl)c3)c2=O)ccc1F` [Example 247, 2-(3-Chloro-4-fluorophenyl)-4-(4-fluoro-3-mehylphenyl)-5-[4-(methylsulfonyl)phenyl]-3(2H)-pyridazinone] yielded a melting point of 207 to 208 °C. In data set [1] (setting [6]), the inhibition at 0.1 µM is 51% and the inhibition at 1 µM amounted to 71%. Moreover, in data set [1] (10 μM, read-out: RHUCX2 % Inh. at Dose), the inhibition at 10 µM came to 99%. In data set [2] (1 μM, read-out: RHUCX1 % Inh. at Dose), the inhibition at 1 µM stood at 55%. Besides, in data set [2] (setting [9]), the inhibition at 10 µM turned out to be 72%. Besides, the pIC50 in data set [3] was 7.70. The pIC50 in data set [4] was 5.11.
In turn, `CC(C)(C)COc1c(-c2ccc(S(C)(=O)=O)cc2)cnn(-c2cccc(Cl)c2)c1=O` [Example 338, 2-(3-Chlorophenyl)-4-(2,2-dimethylpropoxy)-5-[4-(methylsulfonyl)phenyl]-3(2H)-pyridazinone] had a melting point of 151 to 153 °C. In data set [1] (setting [6]), the inhibition at 0.1 µM is 83% and the inhibition at 1 µM amounted to 100%. In data set [2] (setting [9]), the inhibition at 100 µM amounted to 0%. Besides, in data set [3], the pIC50 was 8.40. Besides, the pIC50 in data set [4] is 4.83.
Turning to `CS(=O)(=O)c1ccc(-c2cnn(-c3cccc(Cl)c3)c(=O)c2C2CCCCC2)cc1` [Example 368, 2-(3-Chlorophenyl)-4-cyclohexyl-5-[4-(methylsulfonyl)phenyl]-3(2H)-pyridazinone], the melting point fell in the range of 85 to 90 °C. Further, in data set [1] (setting [6]), the inhibition at 0.1 µM was found to be 65% and the inhibition at 1 µM was determined as 96%. Further, the inhibition at 100 µM in data set [2] (setting [9]) is 13%. The inhibition at 0.01 µM in data set [3] (setting [8]) was determined as 33%. Further, the inhibition at 0.03 µM in data set [3] (0.03 μM, read-out: Wish % Inhib. at Dose) worked out at 64%. Further, the pIC50 in data set [4] was 4.86.
As to `Cc1ccc(-c2c(-c3ccc(S(C)(=O)=O)cc3)cnn(-c3cccc(Cl)c3)c2=O)cc1` [Example 370, 2-(3-Chlorophenyl)-4-(4-methylphenyl)-5-[4-(methylsulfonyl)phenyl]-3(2H)-pyridazinone], the melting point lay within 222 to 224 °C. In data set [1], the pIC50 was 7.32. The inhibition at 100 µM in data set [2] (setting [9]) was found to be 8%. In data set [3], the pIC50 was 7.70. Moreover, in data set [4], the pIC50 was 5.08.
Take `CC(C)CCc1c(-c2ccc(S(C)(=O)=O)cc2)cnn(-c2ccc(F)cc2)c1=O` [Example 378]: the “CAP % Inhib. @ 3 mpk” value in data set [5] was found to be 59%.
The molecule `CC(C)(C)COc1c(-c2ccc(S(N)(=O)=O)c(F)c2)cnn(CC(F)(F)F)c1=O` [Example 381, 2-(2,2,2-Trifluoroethyl)-4-(2,2-dimethylpropoxy)-5-[3-fluoro-4-(aminosulfonyl)phenyl]-3(2H)-pyridazinone] had a melting point of 144 to 145 °C. Moreover, in data set [1], the pIC50 is 6.73. Further, the inhibition at 100 µM in data set [2] (setting [9]) was found to be 0%. Moreover, the pIC50 in data set [3] was 7.12. The inhibition at 30 µM in data set [4] (30 μM, read-out: HWPX % Inhib. at Dose) was found to be 31%. In data set [4] (100 μM, read-out: HWPX % Inhib. at Dose), the inhibition at 100 µM came out at 91%.
Molecule `NS(=O)(=O)c1ccc(-c2cnn(-c3ccc(F)c(Cl)c3)c(=O)c2-c2ccc(F)cc2)cc1` [Example 401, 2-(3-Chloro-4-fluorophenyl)-4-(4-fluorophenyl)-5-[4-(aminosulfonyl)phenyl]-3(2H)-pyridazinone] yielded a melting point of 208 to 210 °C. In data set [1] (setting [6]), the inhibition at 0.01 µM came out at 48%, the inhibition at 0.1 µM was determined as 62% and the inhibition at 1 µM came to 96%. For the same molecule, the pIC50 in data set [2] is 6.12. Moreover, in data set [3], the negative logarithm of the IC50 (pIC50) is 7.77. Further, the pIC50 in data set [4] is 6.49.
Regarding `CC(C)CCc1c(-c2ccc(S(N)(=O)=O)cc2)cnn(-c2ccc(F)c(F)c2)c1=O` [Example 404, 2-(3,4-Difluorophenyl)-4-(3-methylbutyl)-5-[4-(aminosulfonyl)phenyl]-3(2H)-pyridazinone], the melting point is 171 to 173 °C. Besides, in data set [1] (setting [6]), the inhibition at 0.01 µM stood at 57% and the inhibition at 0.1 µM came to 92%. In data set [2] (setting [9]), the inhibition at 10 µM is 47% and the inhibition at 100 µM amounted to 77%. Moreover, in data set [3] (setting [8]), the inhibition at 0.01 µM worked out at 58% and the inhibition at 0.1 µM came out at 96%. Besides, the pIC50 in data set [4] is 6.47.
`CS(=O)(=O)c1ccc(-c2cnn(-c3cccc(Cl)c3)c(=O)c2OCC2CC2)cc1` [Example 418, 2-(3-Chlorophenyl)-4-cyclopropanemethoxy-5-[4-(methylsulfonyl)phenyl]-3(2H)-pyridazinone]: the melting point was in the range of 158 to 161 °C. For the same molecule, the inhibition at 0.025 µM in data set [1] (0.025 μM, read-out: RHUCX2 % Inh. at Dose) worked out at 53%. Besides, in data set [1] (setting [6]), the inhibition at 0.1 µM turned out to be 52% and the inhibition at 1 µM amounted to 85%. In addition, in data set [2] (setting [9]), the inhibition at 100 µM was determined as 33%. In data set [3], the negative-log IC50 (pIC50) was 6.60. The pIC50 in data set [4] is 4.85.
